Tests used:
Hepatitis C virus [1] = experiment: Inhibition of Hepatitis C virus CON1 NS5B RNA dependent RNA polymerase after 2 hrs by scintillation counting analysis; parameters: species or system Hepacivirus hominis; conditions: Con1, 2 h
Hepatitis C virus [2] = experiment: Inhibition of Hepatitis C virus subtype 1b J4L6 NS5B Cdelta21 RNA dependent RNA polymerase after 60 mins by liquid scintillation counting analysis; conditions: J4L6, 1 h

| IC50 (Hepatitis C virus [1]) [µM] | IC90 (Hepatitis C virus [1]) [µM] | Structure (SMILES) | IC50 (Hepatitis C virus [2]) [µM] |
| --- | --- | --- | --- |
| 14.2 | 28 | CCOc1nc2cccc(C(=O)OC(C)OC(=O)OC3CCCCC3)c2n1Cc1ccc(-c2ccccc2-c2nn[nH]n2)cc1 (centres undefined) [CANDESARTAN CILEXETIL] | – |
| – | – | CCOC(=O)c1c(NC(=O)CSc2nnc3nc4[nH]c5ccccc5c4nn23)sc2c1CCN(C)C2 | 46.3 |
| – | – | COc1c2c(cc3c1C(C#CCOc1cc4c5c(oc4cc1C(C)(C)C)CCCC5)N(C)CC3)OCO2 (centres undefined) | 38 |

From ChEMBL document CHEMBL2385044, “Inhibitors for the hepatitis C virus RNA polymerase explored by SAR with advanced machine learning methods” (Bioorg Med Chem, 2013)
